US6168776A (priority 1997, dated 2001)
“Also recorded” adds a separate entry of the source.

Legend:
[1] = Staining of transgenic mouse brain section; conditions: in words
Text: FIG. 11. […] 26: 241-242 (1973). […] The photomicrograph was obtained using fluorescence microscopy.
(§1) The staining method was that of Stokes and Trickey, J. Clin. Pathol. 26: 241-242 (1973) with 1,4-bis(3-carboxy-4-hydroxyphenylethenyl)-benzene substituted for Congo red.

[2] = Staining of AD brain sections (fluorescence microscopy); set-up: species or system human; conditions: in words
Description: 26: 241-242 (1973) with 1 mM 1,4-bis(3-carboxy-4-hydroxyphenylethenyl)-benzene substituted for Congo red, but the procedure was otherwise identical. Stained slides were examined using fluorescence microscopy.
as §1

Aβ(10-43) [3] = molecular target: T1, Aβ(10-43) (Homo sapiens, UniProt P05067); assay: Inhibition of [14C] Chrysamine G binding to Aβ(10-43); conditions: for binding activity to Aβ / Ki relative to Chrysamine G / potency/affinity relative to reference compound: in words; for potency/affinity relative to reference compound: vs Chrysamine G or, for Chrysamine G, vs Congo red; for energy of binding: ΔG=-RT ln Keq, from KD (Chrysamine G) or Ki (aniline derivative)
T1 sequence (P05067 681-714): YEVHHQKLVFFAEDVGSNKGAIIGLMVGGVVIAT

[4] = Metabolism of [14C] Chrysamine G in mouse brain and liver
[5] = [14C] Chrysamine G binding to Down's syndrome brain homogenates; set-up: species or system human; conditions: two patients, FIG. 9C
Text: FIGS. 9A, 9B and 9C. […] The data points represent the ratio of [^14 C] […] Horizontal bars represent the mean and error bars represent the standard error for control (circles), and AD brain (diamonds in 9A and 9B). […] Asterisks indicate significant differences compared to control (*p<0.05; **p<0.001). The diamonds in 9C represent a brain from a Down's syndrome patient not yet symptomatic with AD. The triangles in 9C represent a Down's syndrome patient who had developed AD as do the vast majority of Down's syndrome patients by their 40's.

[6] = Total [14C] Chrysamine G binding to control brain homogenates; set-up: species or system human
[7] = Scatchard analysis of [14C]CG binding to AD brain homogenates
[8] = Tissue levels after i.v. injection of [14C] Chrysamine G in mice (blood-brain barrier); format: in vivo, Swiss-Webster mice; conditions: 15 to 35 min after i.v. injection
Aβ(10-43) [9] = molecular target: T1, Aβ(10-43); assay: Scatchard analysis of [14C] Chrysamine G binding to synthetic Aβ(10-43); conditions: read-out: dissociation constant; approximately; whether by Scatchard analysis, kinetic methods, or inhibition of binding
[10] = Correlation of [14C]CG binding with neuritic plaque (NP) and neurofibrillary tangle (NFT) counts; set-up: species or system human
Description: FIG. 8B is a graph illustrating the correlation between the amount of [^14 C] […] The filled symbols and heavy lines indicate brains without amyloid angiopathy, the open symbols and dashed lines indicate brains with amyloid angiopathy. The y-axis represents total, absolute [^14 C] […] Approximately 75 μg protein and 150 nM [^14 C] Chrysamine G were used.

[11] = Total [14C] Chrysamine G binding to AD brain homogenates; set-up: species or system human
PC-12 cells = assay: Protection from Aβ(25-35)-induced toxicity in PC-12 cells (MTT reduction); conditions: for protective effects in cells incubated with 1 μM Aβ(25-35): Chrysamine G at 0.1 and 1 μM, FIG. 14; for protective effect against Aβ(25-35)-induced decrease in MTT reduction: in words, FIGS. 12 and 13
[12] = Scatchard analysis of [14C]CG binding to control brain homogenates
Aβ [13] = conditions: in words; cited from earlier work
[14] = in words; Tubis et al.; cited from earlier work
Aβ [15] = conditions: cited from earlier work
[16] = Octanol/water partitioning; conditions: 1-octanol / phosphate buffered saline pH 7.4
amylin = conditions: in words; cited from earlier work
[17] = guinea pigs; Tubis et al.; cited from earlier work

Question: Which results are given for `O=C(O)c1cc(C=Cc2ccc(C=Cc3ccc(O)c(C(=O)O)c3)cc2)ccc1O` [1,4-bis(3-carboxy-4-hydroxyphenylethenyl)-benzene]?
Answer: staining of plaque in transgenic mouse brain [1]: intensely stained plaque; staining relative to Chrysamine G, Congo red, or Thioflavin S ([2]; human AD brain): much more intense than that observed with Chrysamine G, Congo red, or Thioflavin S; staining of human AD brain [2]: Numerous amyloid plaques and neuropil threads can be readily identified as well as a neurofibrillary tangle; also recorded: Visible are a large number of neuritic plaques, a neurofibrillary tangle and frequent neuropil threads

Question: For `O=C(O)c1cc(N=Nc2ccc(-c3ccc(N=Nc4ccc(O)c(C(=O)O)c4)cc3S(=O)(=O)O)c(S(=O)(=O)O)c2)ccc1O` [2,2'-(SO3)2 CG], which “binding activity to Aβ” value (Aβ(10-43) [3]) is on record?
Answer: inactivity

Question: For `O=C(O)c1cc(N=Nc2ccc(-c3ccc(N=Nc4ccc(O)c(C(=O)O)c4)c(C(=O)O)c3)cc2C(=O)O)ccc1O` [3,3'-(COOH)2 CG], which “loss of activity from Chrysamine G (fold)” value (Aβ(10-43) [3]; vs Chrysamine G) is on record?
Answer: 7 fold

Question: Which “Ki relative to Chrysamine G” value (Aβ(10-43) [3]) does the source give for `O=C(O)c1cc(N=Nc2ccc(-c3ccc(N=Nc4ccc(O)c(C(=O)O)c4)c(Br)c3)cc2Br)ccc1O` [3,3'-Br2 CG] here?
Answer: about half that of Chrysamine G

Question: Which “Ki relative to Chrysamine G” value (Aβ(10-43) [3]) does the source give for `O=C(O)c1cc(N=Nc2ccc(-c3ccc(N=Nc4ccc(O)c(C(=O)O)c4)c(Cl)c3)cc2Cl)ccc1O` [3,3'-Cl2 CG] here?
Answer: about half that of Chrysamine G

Question: For `O=C(O)c1cc(N=Nc2ccc(-c3ccc(N=Nc4ccc(O)c(C(=O)O)c4)c(I)c3)cc2I)ccc1O` [3,3'-I2 CG], which “Ki relative to Chrysamine G” value (Aβ(10-43) [3]) is on record?
Answer: about half that of Chrysamine G

Question: For `O=C(O)c1cc(N=Nc2ccc(-c3ccc(N=Nc4ccc(O)c(C(=O)O)c4)c(I)c3)cc2)ccc1O` [3-ICG], which “potency/affinity relative to reference compound” value (Aβ(10-43) [3]) is on record?
Answer: slightly more potent than Chrysamine G

Question: With `O=C(O)c1cc(F)cc(N=Nc2ccc(-c3ccc(N=Nc4cc(F)cc(C(=O)O)c4O)cc3)cc2)c1O` [(5-FSA)CG] as the compound, how does the “potency/affinity relative to reference compound” value (Aβ(10-43) [3]) read?
Answer: one-third as potent

Question: With `O=C(O)c1c(O)ccc(N=Nc2ccc(-c3ccc(N=Nc4ccc(O)c(C(=O)O)c4O)cc3)cc2)c1O` [(6-OHSA)CG] as the compound, how does the “potency/affinity relative to reference compound” value (Aβ(10-43) [3]) read?
Answer: highest affinity compound in this series

Question: With `O=C(O)c1cc(N=Nc2ccc(-c3ccc(N=Nc4ccc(O)c(C(=O)O)c4)cc3)cc2)ccc1O` [Chrysamine G, 4,4'-bis(3-carboxy-4-hydroxyphenylazo)-biphenyl] as the compound, how does the “radioactivity that is unchanged Chrysamine G” value ([4]; 60 min, in words) read?
Answer: essentially all

Question: And the remaining at 1 h ([4]; mouse, iv, 0.05 uCi/g)?
Answer: > 95%

Question: What about the “binding in Down's syndrome brain vs control” value [5] of the same compound?
Answer: above the control range

Question: And the total binding ([6]; Cerebellum, Control (n = 8))?
Answer: 75 ± 13 fmol/μg protein

Question: And the total binding ([6]; Frontal Pole, Control (n = 6))?
Answer: 58 ± 8 fmol/μg protein

Question: What about the total binding ([6]; Head of Caudate, Control (n = 4)) of the same compound?
Answer: 73 ± 11 fmol/μg protein

Question: And the total binding ([6]; Inferior Parietal, Control (n = 8))?
Answer: 76 ± 13 fmol/μg protein

Question: And the total binding ([6]; Occipital, Control (n = 8))?
Answer: 64 ± 16 fmol/μg protein

Question: What about the total binding ([6]; Superior Temporal, Control (n = 8)) of the same compound?
Answer: 66 ± 17 fmol/μg protein

Question: And the total binding ([6]; Superior/Middle Frontal, Control (n = 8))?
Answer: 54 ± 10 fmol/μg protein

Question: What about the “Bmax (Table 1)” value ([7]; AD, n = 5) of the same compound?
Answer: 0.784 ± .061 pmol/μg prot

Question: What about the “Bmax in AD brain higher than control” value ([7]; not significant (p=0.09)) of the same compound?
Answer: 36%

Question: And the “KD in AD brain lower than control” value ([7]; not significant (p=0.29))?
Answer: 16%

Question: What about the Bmax ([7]; typical AD brain sample, 48 NP/×200, FIG. 4B) of the same compound?
Answer: 790 fmol/μg protein

Question: What about the “radioactivity in brain over time” value [8] of the same compound?
Answer: stayed nearly constant

Question: What about the Kd (Aβ(10-43) [9]) of the same compound?
Answer: 250 to 400 nM

Question: And the “correlation of binding with NPs (r)” value ([10]; AD brains alone, p=0.007)?
Answer: 0.59

Question: And the “correlation of binding with NFTs (r)” value ([10]; AD brains alone, p=0.026)?
Answer: 0.50

Question: What about the “correlation of binding with NP counts (r)” value ([10]; brains with cerebrovascular amyloid deposits, p=0.15) of the same compound?
Answer: 0.49

Question: And the “correlation of binding with NP counts (r)” value ([10]; brains without amyloid angiopathy, p=0.01)?
Answer: 0.79

Question: What about the “correlation of binding with NFTs (r)” value ([10]; controls included, p=0.001) of the same compound?
Answer: 0.60

Question: And the “correlation of binding with NPs (r)” value ([10]; controls included, p=0.001)?
Answer: 0.69

Question: And the energy of binding (Aβ(10-43) [3])?
Answer: roughly 38 KJ/mole

Question: And the “saturable (specific) binding, share of total binding” value ([11]; AD brain homogenates)?
Answer: 60-80%

Question: And the total binding ([11]; Cerebellum, AD (n = 11))?
Answer: 73 ± 9 fmol/μg protein

Question: And the total binding ([11]; Frontal Pole, AD (n = 10), p < 0.006)?
Answer: 124 ± 16 fmol/μg protein

Question: What about the total binding ([11]; Head of Caudate, AD (n = 7), p = 0.14) of the same compound?
Answer: 123 ± 22 fmol/μg protein

Question: And the total binding ([11]; Inferior Parietal, AD (n = 11), p < 0.03)?
Answer: 137 ± 19 fmol/μg protein

Question: What about the total binding ([11]; Occipital, AD (n = 11), p = 0.1) of the same compound?
Answer: 95 ± 12 fmol/μg protein

Question: And the total binding ([11]; Superior Temporal, AD (n = 11), p < 0.02)?
Answer: 121 ± 14 fmol/μg protein

Question: And the total binding ([11]; Superior/Middle Frontal, AD (n = 11), p < 0.005)?
Answer: 130 ± 21 fmol/μg protein

Question: And the “saturable and total binding vs control” value ([11]; in words)?
Answer: greater in AD brain than in control

Question: And the “concentration range showing protective effects” value (PC-12 cells; Aβ(25-35))?
Answer: 0.1 to 1.0 µM

Question: And the “protective effects in cells incubated with 1 μM Aβ(25-35)” value (PC-12 cells)?
Answer: protective effects at 0.1 and 1 μM

Question: What about the “protective effect against Aβ(25-35)-induced decrease in MTT reduction” value (PC-12 cells) of the same compound?
Answer: dose-dependent, protective effect; also recorded: protective effect which is dependent on both the concentration of Aβ(25-35) (FIG. 12) as well as the concentration of Chrysamine G; also recorded: prevents Aβ-induced cytotoxicity

Question: What about the “effect on MTT reduction in the absence of Aβ(25-35)” value (PC-12 cells; vs control, FIG. 13) of the same compound?
Answer: no significant difference

Question: And the “Bmax (Table 1)” value ([12]; Control, n = 6)?
Answer: 0.576 ± .092 pmol/μg prot

Question: What about the Bmax ([12]; typical control brain sample, FIG. 4B) of the same compound?
Answer: 614 fmol/μg protein

Question: Which results are given for `Nc1c(/N=N/c2ccc(-c3ccc(/N=N/c4cc(S(=O)(=O)O)c5ccccc5c4N)cc3)cc2)cc(S(=O)(=O)O)c2ccccc12` [Congo red]?
Answer: effect on aggregation of Aβ (Aβ [13]): does inhibit aggregation of Aβ; crossing of the blood-brain barrier [14]: does not cross the blood-brain barrier well; effect on Aβ-induced neurotoxicity and cell degeneration (Aβ [15]; in vitro, in words): inhibits fibrillar Aβ neurotoxicity; also recorded: inhibits Aβ-induced neurotoxicity and cell degeneration in vitro; concentration for complete protection from Aβ-induced toxicity (Aβ [15]; literature): ≤ 20 µM; concentration over which Aβ-induced toxicity is protected against (Aβ [15]; literature): over 2 μM; octanol/water partition coefficient [16]: 0.665±0.037; effect on amylin toxicity to pancreatic islet cells (amylin): inhibit pancreatic islet cell toxicity of diabetes-associated amylin; also recorded: protect pancreatic islet cells from the toxicity caused by amylin; brain/kidney ratio [17]: approximately 0.07

Question: With `O=C(O)c1cc(N=Nc2ccccc2)ccc1O` [aniline derivative] as the compound, how does the “binding activity to Aβ” value (Aβ(10-43) [3]) read?
Answer: decrease in affinity

Question: And the energy of binding (Aβ(10-43) [3])?
Answer: 5.5 kcal/mol

Question: Which “binding activity to Aβ” value (Aβ(10-43) [3]) does the source give for `Oc1ccc(N=Nc2ccc(-c3ccc(N=Nc4ccc(O)cc4)cc3)cc2)cc1` [phenol derivative] here?
Answer: completely destroyed binding affinity; also recorded: does not bind to synthetic Aβ

Question: And the “protective effects in cells incubated with 1 μM Aβ(25-35)” value (PC-12 cells)?
Answer: no protective effects, and perhaps enhanced the toxicity of Aβ

Question: And the “protective effect against Aβ(25-35)-induced decrease in MTT reduction” value (PC-12 cells)?
Answer: does not prevent Aβ-induced cytotoxicity

Question: With `O=C(O)c1ccccc1O` [salicylic acid] as the compound, how does the “binding activity to Aβ” value (Aβ(10-43) [3]) read?
Answer: total lack of binding activity; also recorded: inactivity
